# Assay results from article PMC10814725, “In Vitro Anti-Inflammatory Study of Limonoids Isolated from Chisocheton Plants” (Current Issues in Molecular Biology, 2024).
# Read-outs that look alike come from different tables or passages of the source.
# Assays:
# [1] = Cell viability by CCK-8, THP-1 cells; assay type: cell-based; details: human, PMA-differentiated THP-1 cells; for CC50 at 18 h: concentration causing 50% cytotoxicity against THP-1 cells
# Experimental: (§1) The viability of HEK-Blue^TM hTLR4, […], and THP-1 cells was evaluated using the Dojindo Cell Counting Kit-8 (CCK-8) according to the manufacturer’s instructions. The viability of HEK-Blue^TM hTLR4 and THP-1 cells was assessed under identical conditions to the corresponding assay treatments. HEK-Blue^TM hTLR4 cells (2 × 10^4 cells/well) were seeded in 96-well plates and serum-starved for 24 h at 37 °C in a 5% CO2 atmosphere. After incubation, the culture medium was aspirated, and the cells were washed with saline. High-glucose D-MEM supplemented with 0.1% FBS and 1% penicillin–streptomycin was added and pretreated with or without the 17 limonoids at a concentration of 20 µM for 1 h, followed by LPS addition at a concentration of 10 ng/mL. After 18 h of incubation, a 10% (v/v) CCK-8 solution was added to each well and incubated at 37 °C for 1 h, and cell viability was calculated.
# The THP-1 cells at 5 × 10^4 cells/well were differentiated for 24 h in the presence of PMA (0.5 μM solution in medium). After 24 h of incubation, the culture medium was removed from the 96-well plate and the cells were washed with PBS. Fresh RPMI-1640 medium supplemented with 0.1% FBS and 1% penicillin–streptomycin was added to each well and incubated at 37 °C for overnight. The cells were pretreated with 17 limonoids at the corresponding concentration for 1 h followed by the addition of LPS (10 ng/mL) and incubated at 37 °C for 18 h. Furthermore, CCK-8 solution was added to each well with a final concentration was 10% (v/v) and incubated at 37 °C. After 1 h, the absorbance of each well was measured at […] by using a microplate reader (BioTek Cytation 5 Cell Imaging Multimode Reader). Cell viability was calculated using the following formula: % Cell viability=(Absorbance of sample−Absorbance of Background)/(Absorbance of control−Absorbance of Background)×100 where the absorbance of the sample is the absorbance of cells treated by the compound with or without LPS, the absorbance of the control is the absorbance of LPS (−)-treated cells, and the background absorbance is the absorbance of a well containing only the medium. The results were expressed as 100% cell viability.
# IL-1β = experiment: ELISA of IL-1β production in LPS-stimulated THP-1 cells; assay type: cell-based, human; details: 10 µM, compared to LPS (+)-stimulated group
# Experimental: (§2) The logarithmic growth phase of THP-1 cells was achieved by seeding in 96-well plates at a density of 5 × 10^4 cells/well and differentiated for 24 h in the presence of PMA (0.5 μM solution in medium). After 24 h of incubation, the culture medium was removed from the 96-well plate and the cells were washed with PBS. Fresh RPMI-1640 medium supplemented with 0.1% FBS and 1% Penicillin–Streptomycin was added to each well and incubated at 37 °C overnight. The cells were pretreated with 17 limonoids at the corresponding concentration for 1 h, followed by the addition of LPS (10 ng/mL) and then incubation at 37 °C for 18 h. Finally, 50 μL of each culture supernatant solution was taken to determine the concentrations of IL-6, MCP-1, and IL-1β using the corresponding commercially available human ELISA kits following the manufacturer’s instructions. The analyte concentration in the supernatant was measured in pg/mL, and the inhibition level was expressed as a fold change compared to the LPS (−) control group. To determine the IC50 value, the dose-response data were normalized to the LPS-stimulated-only group, and the percentage of inhibition was calculated using the following formula: % Inhibition=(Absorbance of LPS+ control−Absorbance of compound treatment with LPS)/(Absorbance of LPS+ control−Absorbance of LPS− control)×100
# (§3) Furthermore, the % inhibition data were interpolated into linear equations to determine the IC50 values.
# IL-6 = experiment: ELISA of IL-6 production in LPS-stimulated THP-1 cells; assay type: cell-based, human; details: for IL-6 SI (selectivity index, CC50/IC50): THP-1 CC50 / IL-6 IC50; for IC50: Homo sapiens, THP-1, 18 h, LPS-stimulated (10 ng/mL) THP-1 cells, 1, 5, 10, 20 µM, 18 h
# Experimental: as §2, with “Fresh RPMI-1640 medium supplemented with 0.1% FBS and 1% Penicillin–Streptomycin was added to each well and incubated at 37 °C overnight.” left out
# as §3
# TNF-α = experiment: ELISA of TNF-α production in LPS-stimulated THP-1 cells; assay type: cell-based, human; details: for IC50: LPS-stimulated (10 ng/mL) THP-1 cells, 1, 5, 10, 20 µM, 18 h, read-out: TNF-α IC50; for TNF-α SI (selectivity index, CC50/IC50): THP-1 CC50 / TNF-α IC50
# [2] = Cell viability by CCK-8, HEK-Blue hTLR4 cells; assay type: cell-based; details: human
# Experimental: as §1
# MCP-1 = experiment: ELISA of MCP-1 production in LPS-stimulated THP-1 cells; assay type: cell-based, human; details: 10 µM, compared to LPS (+)-stimulated group, THP-1 cells
# Experimental: as §2, with “Fresh RPMI-1640 medium supplemented with 0.1% FBS and 1% Penicillin–Streptomycin was added to each well and incubated at 37 °C overnight.” left out
# as §3
# phosphorylated-p38 MAPK = experiment: Western blotting of phosphorylated-p38 MAPK in LPS-stimulated THP-1 cells; assay type: cell-based, human; details: 10 µM, LPS 10 ng/mL, 18 h, compared to LPS (+) group
# Experimental: THP-1 cells were seeded at a density of 1 × 10^6 cells/well in 24-well plates. The cells were then pretreated with a concentration of 10 µM of compounds 3, 5, 9, or 15 for 1 h. Subsequently, LPS (10 ng/mL) was added to the cells, which were incubated for 18 h. The protein concentrations were determined using a bicinchoninic acid (BCA) assay kit.
# For Western blot analysis, proteins were separated by SDS-PAGE and transferred onto a polyvinylidene fluoride (PVDF) membrane. The membranes were blocked with 2.5% BSA in Tris-buffered saline-Tween (TBST) for 1 h at room temperature. After three washes with TBST, the membranes were incubated with a diluted primary antibody solution (anti-phosphorylated-p38 MAPK or anti-p38 MAPK) at a 1:1000 dilution for 1 h at room temperature. After three washes with TBS-T, the membranes were incubated with a secondary antibody conjugated to horseradish peroxidase (HRP; 1:4000 dilution) for 30 min at room temperature and subsequently detected by chemiluminescence. Finally, the bands were visualized and quantified using an ImageQuant 800 GxP system (Cytiva, MA, USA). The results were expressed as ratios relative to the reference protein β-actin.
# [3] = system: TNF-α, IL-6, IL-1β, and MCP-1; experiment: ELISA of pro-inflammatory markers overall (TNF-α, IL-6, IL-1β, MCP-1) in LPS-stimulated THP-1 cells; assay type: cell-based; details: Homo sapiens, read-out: Overall IC50 values for the evaluated pro-inflammatory markers
# Experimental: as §2, §3
# in vitro = assay type: cell-based; details: mouse
# Experimental: as §1
# [4] = system: TLR4-dependent NF-kB activation in HEK-Blue hTLR4 cells; experiment: SEAP reporter gene assay, antagonist effect on LPS-stimulated TLR4-dependent NF-κB activation; assay type: cell-based, human; details: 20 µM, LPS 10 ng/mL, 18 h, vs. LPS stimulated-only group
# Experimental: The SEAP Reporter Gene Assay was conducted as previously described. HEK-Blue^TM hTLR4 cells (2 × 10^4 cells/well) were seeded in 96-well plates and were serum-starved for 24 h at 37 °C in a 5% carbon dioxide atmosphere. After incubation, the culture medium was aspirated, and the cells were washed with saline. High-glucose D-MEM supplemented with 0.1% FBS and 1% penicillin-streptomycin was added and treated with or without the 17 limonoids at a concentration of 20 µM for 1 h, followed by LPS addition at a concentration of 10 ng/mL for the LPS-stimulated group. After incubation at 37 °C for 18 h, the supernatants were collected and PNPP in PBS solution (0.8 mM, 100 μL) was added, followed by 4 h of shading at 25 °C. The optical density (OD) of the samples was measured at 405 nm using a microplate reader (BioTek Cytation 5 Cell Imaging Multimode Reader, Agilent Technologies, Santa Clara, CA, USA).
# [5] = LPS 10 ng/mL, read-out: Viability Cell (%) THP-1 LPS-Induced (10 ng/mL)
# [6] = without LPS, read-out: Viability Cell (%) THP-1 Without LPS
# [7] = 10 µM, compared to LPS (+)-stimulated group, THP-1 cells
# [8] = Viability Cell (%) HEK-Blue hTLR4 LPS-Induced (10 ng/mL)
# [9] = Viability Cell (%) HEK-Blue hTLR4 Without LPS
SMILES,"viability at 18 h, 10 µM [1, 5] [%]","viability at 18 h, 10 µM [1, 6] [%]",CC50 at 18 h [1] [µM],Effect on IL-1β level (IL-1β),Effect on IL-6 level (IL-6; [7]),"IL-6 SI (selectivity index, CC50/IC50) (IL-6)",Effect on TNF-α level (TNF-α; [7]),"IC50 (TNF-α; Homo sapiens, THP-1, 18 h) [µM]",IC50 (TNF-α) [µM],"TNF-α SI (selectivity index, CC50/IC50) (TNF-α)","viability at 18 h, 20 µM [2, 8] [%]","viability at 18 h, 20 µM [2, 9] [%]",Effect on MCP-1 level (MCP-1),Effect on p-p38 MAPK levels (phosphorylated-p38 MAPK),IC50 [3] [µM],viability at 5 µM (in vitro) [%],viability at 10 µM (in vitro) [%],viability at 20 µM (in vitro) [%],Inhibition of SEAP release (NF-κB activity inhibition) [4],IC50 (IL-6) [µM]
"CC(=O)O[C@@H]1[C@H](O)[C@H]2C(C)(C)C(=O)C=C[C@]2(C)[C@H]2CC[C@]3(C)C(=CC[C@H]3c3ccoc3)[C@]12C [Compound 9, nimonol]",83.9 ± 7.6,> 99.9,107,significantly reduced,significantly reduced,94.98,significantly reduced,< 3,2.15,49.92,74.8 ± 6.22,> 99.9,significantly reduced,significantly suppressed,< 20,93.8 ± 1.86,89.9 ± 2.44,79.4 ± 10.2,–,–
"CC(=O)O[C@@H]1C[C@]2(C)C(=CC[C@H]2c2ccoc2)[C@@]2(C)[C@H]1[C@@]1(C)C=CC(=O)C(C)(C)[C@@H]1C[C@H]2OC(C)=O [Compound 11, 11α-acetoxyazadirone]",> 99.9,> 99.9,–,–,–,–,–,–,–,–,9.84 ± 7.34,52.6 ± 4.74,–,–,–,90.1 ± 7.88,79 ± 1.58,78.9 ± 2.21,significantly inhibited SEAP release,–
"CC(=O)O[C@@H]1C[C@H]2C(C)(C)C(=O)C=C[C@]2(C)[C@H]2CC[C@@]3(C)[C@H](c4ccoc4)C[C@H]4O[C@]43[C@@]21C [Compound 13, trichilenone acetate]",> 99.9,90.8 ± 3.23,–,–,–,–,–,–,–,–,> 99.9,92.4 ± 10.6,–,–,–,> 99.9,> 99.9,91.9 ± 4.37,significantly inhibited SEAP release,–
"CC1(C)C(=O)C=C[C@]2(C)[C@H]3CC[C@]4(C)C(=CC[C@H]4C4CCOC4=O)[C@]3(C)[C@H](O)C[C@@H]12 (stereo partly shown) [Compound 16, pentandricine C]",> 99.9,90.4 ± 7.6,110,–,–,19.40,–,–,–,–,> 99.9,> 99.9,–,significantly suppressed,< 20,91.8 ± 3.18,81.3 ± 7.05,89.4 ± 7.08,–,5.69
"CC(=O)O[C@H]1[C@@H](OC(C)=O)[C@]2(C)[C@H](CC[C@@]3(C)[C@H](c4ccoc4)C[C@H]4O[C@@]423)[C@@]2(C)C=CC(=O)C(C)(C)[C@H]12 [Compound 4, 6α-(acetoxy)-14β,15β-epoxyazadirone]",> 99.9,> 99.9,38,–,–,–,–,5.6,–,6.78,> 99.9,> 99.9,–,significantly suppressed,< 20,85 ± 5.66,85.9 ± 5.34,82.4 ± 1.15,–,1.64
"CC(=O)O[C@@H]1C[C@H]2C(C)(C)C(=O)C=C[C@]2(C)[C@H]2CC[C@]3(C)C(=CC[C@H]3C3CCOC3=O)[C@@]21C (stereo partly shown) [Compound 15, pentandricine B]",> 99.9,> 99.9,96.6,–,–,13.11,–,16.4,–,5.88,84.4 ± 18.7,> 99.9,–,significantly suppressed,< 20,92.8 ± 1.79,91.9 ± 3.59,90.9 ± 4.95,–,7.37
